# Data from patent US9840522B2, “Multi-modal bioprobe for bladder cancer imaging and photodynamic therapy” (Hong Kong Baptist University, priority 2014, dated 2017).
# System: xenograft tumor (T24 bladder cancer cells)
# Assay: In vivo magnetic resonance imaging after tail vein injection
# Parameters: species or system mice
# Conditions: MRI immediately
# Experimental: After tail vein injection of Gd-3-R1 and Gd-DOTA into the mice, MRI experiment is conducted immediately.
compound,measurement,value
O=C([O-])CN1CCN(CC(=O)[O-])CCN(CC(=O)O)CCN(CC(=O)[O-])CC1.[Gd+3] [Gd-DOTA],MRI contrast effect on xenograft tumor,enhances the whole body signal without selectivity toward the tumor
